The values below are quoted from earlier work in US11980624B2, “Methods for administering compositions comprising hydroxytyrosol and boswellic acid” (Nutramax Laboratories, Inc., priority 2016, dated 2024).

The conditions of the series: single oral 2.5 mg/kg dose, human subjects.

Turning to `OCCc1ccc(O)c(O)c1` [hydroxytyrosol, 4-(2-Hydroxyethyl)-1,2-benzenediol], the peak plasma concentration is 1.11 ± 0.20 µmol/L.
